From patent US8889638B2, “Stimulus-triggered prodrugs” (The Regents of the University of California, priority 2010, dated 2014)
Several values for one entry are separate records, joined by “and”; a condition that tells them apart may be missing. Identical values can stand only once.

What was measured:
β-glucosidase = β-glucosidase cleavage of glucose-protected compounds (UV-Vis, HPLC, Km); assay type: biochemical, almonds; details: 37° C.
Description: Absorption spectra of compounds 1-8 were taken on a Perkin-Elmer Lambda 25 UV-visible spectrophotometer. To a 1.0 mL solution at 0.05-0.06 mM concentration in HEPES buffer (50 mM, pH 7.5) was added β-glucosidase (16 U for compounds 2, 4, and 6, and 100 U for compound 8). Spectra were monitored over time either at room temperature for compounds 1-7 or at 37° C. for compound 8.
To a 1.0 mL solution of 8 in HEPES buffer at 25 μM, 50 μM, 75 μM, 100 μM, and 200 μM was added 100 U of β-glucosidase. Spectra were monitored over 4 h at 37° C. The concentration of product formed, 1,2-HOPO-2 (7), was determined using the extinction coefficient for 7 calculated at 346 nm (4279±372 M-1 cm-1) and was plotted versus time (min). The initial velocity (ν) of each reaction was determined analyzing the linear slope of the first 50 min. The Km value was calculated from the Lineweaver-Burk plot (1/ν vs. 1/[8]) where −1/Km equals the x-intercept (FIG. 10).
Analytical HPLC was performed on a HP Series 1050 system equipped with a Vydac® C18 reverse phase column (218 TP, 250×4.6 mm, 5 μm). […] Retention times of compounds 1-8 were determined under identical HPLC conditions prior to evaluation of glucose cleavage of the protected compounds. […]

[1] = molecular target: T1, MMP-9 (catalytic domain, human, recombinant) (Homo sapiens, UniProt P14780); test: MMP-9 fluorescence-based inhibition assay with and without β-glucosidase; assay type: biochemical
T1 construct: MMP-9 (catalytic domain, human, recombinant); purchased BIOMOL International
Description: MMP-9 (catalytic domain, human, recombinant), MMP-8 (catalytic domain, human, recombinant), and the assay kit were purchased from BIOMOL International. The assays were carried out according to the procedure provided with the kit. MMP activity was measured in 96-well plates using a Bio-Tek Flx 800 fluorescent plate reader. The ZBGs and their protected analogs were dissolved in DMSO and diluted in HEPES buffer (50 mM, pH 7.5) to a concentration of 10 mM for 1-2, 40 mM for 3-4, and 1.25 mM for 5-6. Each well contained 20 μL, of MMP-9 (0.45 U/mL), inhibitor (10 μL, of 1-6), 5 μL, of β-glucosidase (1 U/μL) when used, and buffer for a total volume of 99 μL. These were incubated for 1 h at 37° C. […] The reaction was initiated by the addition of 1 μL (400 μM) of the fluorescent substrate (Mca-Pro-Leu-Gly-Leu-Dpa-Ala-Arg-NH2 where Mca=(7-methoxycoumarin-4-yl)-acetyl and Dpa=N-3-(2,4-dinitrophenyl)-L-α-β-diaminopropionyl)) and kinetic activity was measured every minute for 30 min with excitation and emission wavelengths at 335 nm and 405 nm, respectively. Enzyme activity with inhibitor was calculated with respect to the control experiment (no inhibitor present). Measurements were performed in duplicate in two independent experiments.
For Cmpds 7 and 8, 1 mL sample in HEPES buffer at a concentration of 1 mM was incubated at 37° C. with 250 U of β-glucosidase (1 U/μL) for 4 h giving a final concentration of 0.8 mM of the inhibitor. After 4 h, a 200 μL aliquot was collected and filtered through a microcentrifuge filter. UV-Vis absorption spectroscopy was to verify that the concentration of 1,2-HOPO-2 was 0.71±0.2 mM in each of the samples using the extinction coefficient for 1,2-HOPO-2 (7) calculated at 346 nm (4,279.3±372 M-1 cm-1). Each well was made up with 20 μL of MMP-9 (0.45 U/mL), inhibitor (2 μL, for 7 and 8), and buffer for a total volume of 99 μL. These were incubated for 30 min at 37° C. For MMP-8 inhibition assays, each of the samples was diluted to 1 μM in HEPES buffer and 15 μL of each were added to 20 μL of MMP-8 (0.092 U/mL) and buffer for a total of 99 μL. The reaction was initiated by the addition of 1 μL (400 μM) of the fluorescent substrate and kinetic activity was measured every minute for 30 min with excitation and emission wavelengths at 335 nm and 405 nm, respectively. Enzyme activity with inhibitor was calculated with respect to the control experiment (no inhibitor present). A control sample was also performed, in which an aliquot of 250 U of β-glucosidase (1 U/μL) with 1 mL of HEPES buffer was incubated for 4 h at 37° C., filtered through a microcentrifuge filter, and evaluated in the MMP assay to confirm that no inhibition is observed with β-glucosidase. Measurements were performed in duplicate in two independent experiments. […]

T1 sequence (P14780 107-444 limits assumed): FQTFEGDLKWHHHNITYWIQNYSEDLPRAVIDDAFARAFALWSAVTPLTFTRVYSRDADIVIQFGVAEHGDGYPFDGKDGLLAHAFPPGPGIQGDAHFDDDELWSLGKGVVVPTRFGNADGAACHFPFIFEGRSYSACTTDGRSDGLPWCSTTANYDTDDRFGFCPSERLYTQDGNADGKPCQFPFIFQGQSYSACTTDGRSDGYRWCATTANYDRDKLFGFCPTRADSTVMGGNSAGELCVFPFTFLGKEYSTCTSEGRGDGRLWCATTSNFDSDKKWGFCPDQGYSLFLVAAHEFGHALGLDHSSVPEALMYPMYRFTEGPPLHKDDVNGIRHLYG

For O=C(NCc1ccc(-c2ccccc2)cc1)c1cccc(=O)n1O[C@@H]1O[C@H](CO)[C@@H](O)[C@H](O)[C@H]1O [Compound 8, N-(Biphenyl-4-ylmethyl)-6-oxo-1-(β-D-glucopyranosyloxy)-1,6-dihydropyridine-2-carboxamide], the Km (β-glucosidase; 100 U β-glucosidase, Lineweaver-Burk plot) was ~210 µM and 210 µM, the “time required for complete conversion of 8 to 7” value (β-glucosidase; β-glucosidase) was ~4 h and the inhibition at 16 µM ([1]; 16 μM, read-out: MMP-9 activity inhibited upon activation with β-glucosidase) was 73%. For the same compound, the “inhibition of MMP-9 in the absence of β-glucosidase” value ([1]; 1 mM for 2, 4 mM for 4, 125 μM for 6, 16 μM for 8) was “very little inhibition”.
